Results as given in the supplement of paper PMC10883282.
± gives the standard deviation of the averaged measurements.

How the values were obtained:
Test in all cases: relative viability vs DMSO control (72 h) (fraction); higher = more viable cells
KHOS-240S = tested on: KHOS-240S
Summary of the method: (§1)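 A 5 µM positive control and 0.1% DMSO vehicle ran alongside sarcoma cell lines seeded in 384-well plates to reach 80–90% confluence. Serially diluted compound, 2.5 µl from source plates of 10 mM to 0.0002 mM, was added after 24 h, and the plates were held 72 h at 37 °C, 5% CO2. Relative viability was worked out from ATPLite readings as percent growth averaged over up to triplicate wells. The values were rescaled so that 1 is full and 0 is none.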

RD-ES = tested on: RD-ES
Summary of the method: as §1

RD = tested on: RD
Summary of the method: as §1

SK-ES-1 = tested on: SK-ES-1
Summary of the method: as §1

SW982 = tested on: SW982
Summary of the method: as §1

CN(C)C[C@@H]1CCn2cc(c3ccccc32)C2=C(C(=O)NC2=O)c2cn(c3ccccc23)CCO1 [Ruboxistaurin]
relative viability
Details | KHOS-240S | RD | RD-ES | SK-ES-1 | SW982
0.00017 µM | 1.04 ± 0.0082 | 1.09 ± 0.031 | 0.981 ± 0.048 | 1.03 ± 0.088 | 1.03 ± 0.031
0.00051 µM | 1.05 ± 0.026 | 1.09 ± 0.023 | 0.993 ± 0.053 | 1.06 ± 0.023 | 1.03 ± 0.047
0.00152 µM | 1.03 ± 0.018 | 1.11 ± 0.039 | 0.9893 ± 0.0053 | 1.07 ± 0.05 | 1.04 ± 0.05
0.00457 µM | 1.04 ± 0.029 | 1.12 ± 0.03 | 0.988 ± 0.022 | 1.08 ± 0.037 | 1.03 ± 0.027
0.01372 µM | 1.02 ± 0.017 | 1.11 ± 0.029 | 0.952 ± 0.026 | 1.07 ± 0.053 | 1.05 ± 0.012
0.04115 µM | 1.02 ± 0.027 | 1.1 ± 0.048 | 0.978 ± 0.023 | 1.02 ± 0.056 | 1.04 ± 0.038
0.1235 µM | 1.03 ± 0.021 | 1.12 ± 0.039 | 0.956 ± 0.0096 | 1.01 ± 0.069 | 1.04 ± 0.033
0.3704 µM | 1.014 ± 0.01 | 1.1 ± 0.02 | 0.993 ± 0.014 | 0.963 ± 0.042 | 1.03 ± 0.027
1.111 µM | 1.04 ± 0.049 | 1.127 ± 0.011 | 0.96 ± 0.016 | 0.869 ± 0.031 | 0.949 ± 0.015
3.333 µM | 1.03 ± 0.025 | 1.08 ± 0.059 | 0.862 ± 0.024 | 0.74 ± 0.008 | 0.846 ± 0.075
10 µM | 0.715 ± 0.041 | 0.857 ± 0.12 | 0.0404 ± 0.0069 | 0.421 ± 0.016 | 0.349 ± 0.066

CO[C@H]1C[C@@H]2CC[C@@H](C)[C@@](O)(O2)C(=O)C(=O)N2CCCC[C@H]2C(=O)O[C@H]([C@H](C)C[C@@H]2CC[C@@H](O)[C@H](OC)C2)CC(=O)[C@H](C)/C=C(\C)[C@@H](O)[C@@H](OC)C(=O)[C@H](C)C[C@H](C)/C=C/C=C/C=C/1C [Rapamycin]
relative viability
Details | KHOS-240S | RD | RD-ES | SK-ES-1 | SW982
0.00017 µM | 0.9934 ± 0.0055 | 0.95 ± 0.022 | 0.966 ± 0.055 | 0.953 ± 0.036 | 0.919 ± 0.011
0.00051 µM | 0.975 ± 0.019 | 0.87 ± 0.044 | 0.962 ± 0.067 | 0.866 ± 0.031 | 0.86 ± 0.042
0.00152 µM | 0.942 ± 0.026 | 0.808 ± 0.026 | 0.868 ± 0.056 | 0.737 ± 0.034 | 0.763 ± 0.043
0.00457 µM | 0.858 ± 0.026 | 0.702 ± 0.048 | 0.833 ± 0.06 | 0.63 ± 0.035 | 0.695 ± 0.034
0.01372 µM | 0.809 ± 0.01 | 0.629 ± 0.032 | 0.77 ± 0.065 | 0.564 ± 0.028 | 0.634 ± 0.036
0.04115 µM | 0.775 ± 0.026 | 0.579 ± 0.033 | 0.712 ± 0.051 | 0.554 ± 0.046 | 0.597 ± 0.013
0.1235 µM | 0.766 ± 0.027 | 0.592 ± 0.05 | 0.665 ± 0.046 | 0.51 ± 0.013 | 0.567 ± 0.013
0.3704 µM | 0.746 ± 0.021 | 0.573 ± 0.038 | 0.677 ± 0.034 | 0.512 ± 0.036 | 0.603 ± 0.0092
1.111 µM | 0.734 ± 0.013 | 0.588 ± 0.028 | 0.687 ± 0.016 | 0.5 ± 0.016 | 0.586 ± 0.02
3.333 µM | 0.7183 ± 0.007 | 0.605 ± 0.058 | 0.647 ± 0.011 | 0.482 ± 0.018 | 0.597 ± 0.0093
10 µM | 0.688 ± 0.018 | 0.568 ± 0.058 | 0.611 ± 0.023 | 0.457 ± 0.012 | 0.591 ± 0.017

Cc1nc(Nc2ncc(C(=O)Nc3c(C)cccc3Cl)s2)cc(N2CCN(CCO)CC2)n1 [Dasatinib]
relative viability
Details | KHOS-240S | RD | RD-ES | SK-ES-1 | SW982
0.00017 µM | 1.06 ± 0.053 | 1.12 ± 0.095 | 0.989 ± 0.026 | 1.04 ± 0.021 | 1.05 ± 0.044
0.00051 µM | 1.04 ± 0.04 | 1.12 ± 0.074 | 0.966 ± 0.03 | 1.03 ± 0.03 | 1.04 ± 0.049
0.00152 µM | 1.01 ± 0.047 | 1.09 ± 0.032 | 0.966 ± 0.015 | 1.038 ± 0.005 | 1.04 ± 0.04
0.00457 µM | 0.957 ± 0.068 | 1.02 ± 0.025 | 0.962 ± 0.013 | 1.05 ± 0.051 | 0.99 ± 0.042
0.01372 µM | 0.816 ± 0.043 | 0.953 ± 0.054 | 0.958 ± 0.023 | 1.02 ± 0.037 | 0.854 ± 0.053
0.04115 µM | 0.708 ± 0.011 | 0.775 ± 0.03 | 0.949 ± 0.019 | 0.975 ± 0.028 | 0.641 ± 0.033
0.1235 µM | 0.494 ± 0.035 | 0.536 ± 0.017 | 0.9274 ± 0.0062 | 0.993 ± 0.021 | 0.389 ± 0.018
0.3704 µM | 0.337 ± 0.017 | 0.458 ± 0.032 | 0.918 ± 0.031 | 0.934 ± 0.064 | 0.277 ± 0.0084
1.111 µM | 0.279 ± 0.018 | 0.426 ± 0.015 | 0.92 ± 0.049 | 0.896 ± 0.058 | 0.259 ± 0.0061
3.333 µM | 0.25 ± 0.0028 | 0.366 ± 0.0042 | 0.759 ± 0.097 | 0.673 ± 0.069 | 0.258 ± 0.0028
10 µM | 0.198 ± 0.01 | 0.267 ± 0.0099 | 0.483 ± 0.024 | 0.402 ± 0.0061 | 0.218 ± 0.0053

Cc1cn(-c2cc(NC(=O)c3ccc(C)c(Nc4nccc(-c5cccnc5)n4)c3)cc(C(F)(F)F)c2)cn1 [Nilotinib]
relative viability
Details | KHOS-240S | RD | RD-ES | SK-ES-1 | SW982
0.00017 µM | 1.04 ± 0.055 | 1.06 ± 0.057 | 0.934 ± 0.053 | 0.966 ± 0.023 | 0.977 ± 0.066
0.00051 µM | 1.02 ± 0.035 | 1.07 ± 0.064 | 0.919 ± 0.065 | 0.958 ± 0.051 | 0.983 ± 0.061
0.00152 µM | 1.03 ± 0.063 | 1.09 ± 0.083 | 0.927 ± 0.068 | 0.951 ± 0.014 | 0.957 ± 0.062
0.00457 µM | 1.02 ± 0.05 | 1.08 ± 0.083 | 0.938 ± 0.058 | 0.919 ± 0.039 | 0.974 ± 0.075
0.01372 µM | 1.03 ± 0.054 | 1.11 ± 0.047 | 0.925 ± 0.047 | 0.954 ± 0.042 | 0.988 ± 0.057
0.04115 µM | 1.01 ± 0.038 | 1.12 ± 0.079 | 0.936 ± 0.042 | 0.975 ± 0.017 | 0.994 ± 0.036
0.1235 µM | 0.999 ± 0.046 | 1.11 ± 0.047 | 0.912 ± 0.053 | 0.997 ± 0.059 | 0.987 ± 0.061
0.3704 µM | 0.998 ± 0.069 | 1.07 ± 0.072 | 0.883 ± 0.061 | 0.908 ± 0.025 | 0.998 ± 0.023
1.111 µM | 0.907 ± 0.032 | 0.898 ± 0.02 | 0.826 ± 0.083 | 0.788 ± 0.037 | 0.973 ± 0.033
3.333 µM | 0.847 ± 0.011 | 0.731 ± 0.025 | 0.702 ± 0.038 | 0.55 ± 0.0074 | 0.902 ± 0.024
10 µM | 0.658 ± 0.026 | 0.6531 ± 0.0034 | 0.714 ± 0.04 | 0.484 ± 0.03 | 0.727 ± 0.066

Cc1c(F)cc(C(=O)NC2CC2)cc1-c1ccc(C(=O)NCC(C)(C)C)cn1 [Losmapimod]
relative viability
Details | KHOS-240S | RD | RD-ES | SK-ES-1 | SW982
0.00017 µM | 1.07 ± 0.037 | 1.11 ± 0.06 | 1.01 ± 0.05 | 1.08 ± 0.047 | 1.059 ± 0.0083
0.00051 µM | 1.1 ± 0.047 | 1.11 ± 0.038 | 0.995 ± 0.012 | 1.12 ± 0.019 | 1.07 ± 0.026
0.00152 µM | 1.07 ± 0.029 | 1.1 ± 0.04 | 1.02 ± 0.031 | 1.09 ± 0.073 | 1.09 ± 0.01
0.00457 µM | 1.09 ± 0.045 | 1.14 ± 0.014 | 0.993 ± 0.025 | 1.11 ± 0.054 | 1.07 ± 0.015
0.01372 µM | 1.04 ± 0.033 | 1.12 ± 0.033 | 0.998 ± 0.046 | 1.07 ± 0.037 | 1.07 ± 0.011
0.04115 µM | 1.06 ± 0.035 | 1.13 ± 0.017 | 0.962 ± 0.043 | 1.02 ± 0.036 | 1.07 ± 0.0099
0.1235 µM | 1.02 ± 0.042 | 1.11 ± 0.012 | 0.947 ± 0.05 | 1.01 ± 0.021 | 1.06 ± 0.013
0.3704 µM | 1 ± 0.025 | 1.07 ± 0.04 | 0.917 ± 0.012 | 0.993 ± 0.036 | 1.07 ± 0.021
1.111 µM | 0.951 ± 0.018 | 1.08 ± 0.057 | 0.879 ± 0.013 | 0.968 ± 0.047 | 1.06 ± 0.026
3.333 µM | 0.97 ± 0.036 | 1.02 ± 0.061 | 0.892 ± 0.011 | 0.915 ± 0.046 | 1.02 ± 0.053
10 µM | 0.893 ± 0.028 | 1.07 ± 0.039 | 0.879 ± 0.019 | 0.879 ± 0.045 | 1 ± 0.038
